According to patent publication US11185077B2, “Attractants for rodents” (priority 2016, dated 2021):

System: wild house mice, Mus musculus
Assay: Field experiments with paired trap boxes: trap captures of wild mice
Type: in vivo
Description: Two field experiments were run in parallel from Feb. 4, 2016 to Apr. 14, 2016 in Vancouver B.C. to evaluate the effect of synthetic androstenone (Experiment 7) and of synthetic progesterone and estrogen (Experiment 8) on trap captures of wild mice. Experimental replicates were set up as depicted in FIG. 7 along the interior walls and bird feeder areas of a plant and bird conservatory maintained under tropical conditions. Each replicate consisted of a pair of trap boxes (PROTECTA® Mouse, Bell Laboratories Inc., Madison, Wis. 53704, USA), with 50-cm spacing between boxes in each pair, and at least 2 m between pairs.
In Experiments 7 and 8, each box in each pair contained a snap trap (1) (FIG. 7) that was baited with a food lure (Musso et al. 2014). In Experiment 7, the trap box was also baited with the synthetic two-component sex pheromone of male mice (3,4-dehydro-exo-brevicomin and 2-sec-butyl-4,5-dihydrothiazole). The compounds were formulated in 10 g of mineral oil and dispensed from a custom-made scintillation vial (2) (FIG. 7). Each box in each pair also contained a piece of Whatman #1 filter paper that by random assignment was treated with 4 μg of synthetic androstenone dissolved in 50 μl ether (3a) or 50 μl ether (control; 4). […]
All boxes and snap traps in both experiments were checked every 48 h to 72 h, and test stimuli (food lure, male-specific pheromone blend in mineral oil, filter paper with or without hormones) were replaced at each visit.
Mouse captures in treatment and control traps were compared against an expected 50:50 distribution using χ^2 tests with Yates' correction for continuity (α=0.05). Replicates with captures in both trap boxes of a pair are not included in the graphical illustration and statistical analyses of data.
Four field experiments were run in Vancouver B.C. to evaluate the effect of synthetic androstenone and synthetic testosterone on captures of female wild mice and rats in combination with species-specific male sex pheromone blend. Experimental replicates were set up along the interior and exterior walls of buildings as depicted in FIG. 7. Experiment 15 evaluated captures of wild mice in trap boxes baited with high-levels of androstenone; Experiment 16 evaluated captures of wild rats in traps baited with high-levels of androstenone; Experiment 17 evaluated captures of wild mice in traps baited with low-levels of testosterone; and Experiment 18 evaluated captures of wild mice in traps baited with low-levels of androstenone. Experiment 15 was run from Feb. 4, 2016 to Apr. 14, 2016. Experiment 16 was run from Feb. 26, 2016 to Sep. 19, 2016. Experiments 17 and 18 were run in parallel from Jun. 2, 2016 to Sep. 8, 2016.
Each replicate of Experiments 15 to 18 consisted of a pair of trap boxes (Mice: PROTECTA® Mouse, Bell Laboratories Inc., Madison, Wis. 53704, USA; Rats: PROTECTA® Sidekick™; Bell Laboratories Inc., Madison, Wis. 53704), with 50-cm spacing between boxes in each pair, and at least 2 m between pairs. Each trap box contained an armed snap trap (1, Mice: Victor® Easy Set® Mouse Trap; Rats: Victor® Easy Set® Rat Trap; Woodstream Corp, Lititz, Pa. 17543, USA) baited with a cereal-based food bait and a scintillation vial (2) containing synthetic sex pheromone blends. Each box in each pair also contained a treatment stimulus that consisted of a piece of Whatman #1 filter paper (3a) that by random assignment was treated with: 4 μg of synthetic androstenone dissolved in 50 μl ether (Experiments 15 and 16); 750 μg of synthetic testosterone dissolved in 50 μl ether (Experiment 17); or 750 μg of synthetic androstenone dissolved in 50 μl ether (Experiment 18). The corresponding box in each pair contained a control stimulus which consisted of a piece of Whatman #1 filter paper (3b) treated with 50 μl ether. […]

[1] = Experiment 7, 4 μg synthetic androstenone, boxes also with food lure and male mouse sex pheromone
[2] = Experiment 15, 4 μg synthetic androstenone, with food bait and male mouse sex pheromone blend
[3] = Experiment 17, 750 μg synthetic testosterone (low-levels), with food bait and male mouse sex pheromone blend

SMILES	captures of adult female mice vs control boxes [1]	captures of juvenile female mice vs control boxes [1]	captures of juvenile and adult male mice (Experiment 15, 4 μg synthetic androstenone)	captures of adult female mice vs control boxes [2]	captures of juvenile female mice vs control boxes [2]	captures of juvenile and adult male mice (Experiment 18, 750 μg synthetic androstenone (low-levels))	captures of female mice vs control traps (Experiment 18, 750 μg synthetic androstenone (low-levels), with food bait and male mouse sex pheromone blend)	captures of both adult and juvenile mice (Experiment 17, 750 μg synthetic testosterone (low-levels))	captures of adult female mice vs control traps [3]	captures of juvenile female mice vs control traps [3]
C[C@]12CCC(=O)C[C@@H]1CC[C@@H]1[C@@H]2CC[C@]2(C)C=CC[C@@H]12 [androstenone, 5α-androst-16-en-3-one]	significantly more	significantly more	no significant effect	significantly more	significantly more	no significant effect	did not differ statistically	–	–	–
C[C@]12CC[C@H]3[C@@H](CCC4=CC(=O)CC[C@@]43C)[C@@H]1CC[C@@H]2O [testosterone, (8R,9S,10R,13S,14S,17S)-17-hydroxy-10,13-dimethyl-1,2,6,7,8,9,11,12,14,15,16,17-dodecahydrocyclopenta[a]phenanthren-3-one, reference compound]	–	–	–	–	–	–	–	no significant effect	significantly more	significantly more
